Patent publication US20050085463A1 (priority 2003, published 2005)
Several values for one entry are separate records, joined by “and”; a condition that tells them apart may be missing. Identical values can stand only once. Like-named read-outs stand apart in the source and are kept apart here.

Assays:
5HT6 receptors = 5HT6 receptors (Homo sapiens, UniProt P50406); test: Ligand binding screen at 10 μM
5HT7 receptors = 5HT7 receptors (Homo sapiens, UniProt P34969); test: Ligand binding screen at 10 μM
Sequence of 5HT7 receptors (P34969 whole entry): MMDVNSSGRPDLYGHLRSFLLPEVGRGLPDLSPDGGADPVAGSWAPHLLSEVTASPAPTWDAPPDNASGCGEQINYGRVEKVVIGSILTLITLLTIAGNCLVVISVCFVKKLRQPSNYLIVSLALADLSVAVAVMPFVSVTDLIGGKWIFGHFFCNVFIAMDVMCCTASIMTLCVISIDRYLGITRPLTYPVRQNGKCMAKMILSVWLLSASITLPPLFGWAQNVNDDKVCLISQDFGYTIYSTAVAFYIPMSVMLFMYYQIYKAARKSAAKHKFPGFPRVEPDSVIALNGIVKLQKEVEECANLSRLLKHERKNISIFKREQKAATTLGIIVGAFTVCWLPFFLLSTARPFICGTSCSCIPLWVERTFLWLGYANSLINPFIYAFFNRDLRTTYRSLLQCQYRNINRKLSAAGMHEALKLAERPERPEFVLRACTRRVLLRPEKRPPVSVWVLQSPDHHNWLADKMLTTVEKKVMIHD

spontaneous activity = test: Spontaneous locomotion; format: in vivo, Non-Swiss Albino (NSA) mice; settings: 10 mg/kg s.c.; maintained for 120 minutes
[1] = Pharmacokinetics after single i.v. or oral dose in rats; format: in vivo, Sprague-Dawley rats; settings: rat; for bioavailability: read-out: BA (oral bioavailability)
D3 dopamine receptor = D3 dopamine receptor (Homo sapiens, UniProt P35462); settings: R-SAT; nr = no significant antagonist or inverse agonist activity up to 1 μM; nr* = nr but significant agonist activity
Sequence of D3 dopamine receptor (P35462 whole entry): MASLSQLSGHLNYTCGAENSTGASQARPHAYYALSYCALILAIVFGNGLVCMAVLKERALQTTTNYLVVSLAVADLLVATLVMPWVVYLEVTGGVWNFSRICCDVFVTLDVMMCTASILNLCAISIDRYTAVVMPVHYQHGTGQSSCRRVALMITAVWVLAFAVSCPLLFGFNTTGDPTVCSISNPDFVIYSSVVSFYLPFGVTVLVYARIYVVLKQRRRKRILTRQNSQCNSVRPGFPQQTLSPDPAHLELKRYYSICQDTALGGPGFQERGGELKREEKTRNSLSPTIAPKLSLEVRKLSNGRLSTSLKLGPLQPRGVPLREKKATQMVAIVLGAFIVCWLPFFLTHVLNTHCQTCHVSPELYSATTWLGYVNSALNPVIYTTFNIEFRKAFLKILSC

[2] = dog; oral clozapine (Mosier et al. 2003); cited from earlier work
[3] = steady state kinetics in humans (ref. 13); cited from earlier work
M2 muscarinic receptor = molecular target: T1, M2 muscarinic receptor (Homo sapiens, UniProt P08172); test: R-SAT agonist assay
T1 sequence (P08172 1-466): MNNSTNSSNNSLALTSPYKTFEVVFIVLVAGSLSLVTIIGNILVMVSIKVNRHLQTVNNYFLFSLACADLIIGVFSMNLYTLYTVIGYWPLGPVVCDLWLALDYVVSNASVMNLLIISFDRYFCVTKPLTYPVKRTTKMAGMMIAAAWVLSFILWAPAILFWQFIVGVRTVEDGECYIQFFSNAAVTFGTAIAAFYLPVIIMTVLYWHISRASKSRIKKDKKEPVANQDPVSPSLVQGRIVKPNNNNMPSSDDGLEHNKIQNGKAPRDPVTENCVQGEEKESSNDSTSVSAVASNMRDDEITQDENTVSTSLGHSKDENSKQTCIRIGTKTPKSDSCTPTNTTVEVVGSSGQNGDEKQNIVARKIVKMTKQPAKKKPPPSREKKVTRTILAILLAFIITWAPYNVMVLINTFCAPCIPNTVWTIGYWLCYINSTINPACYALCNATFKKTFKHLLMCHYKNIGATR

5-HT6A receptor = 5-HT6A receptor (Homo sapiens, UniProt P50406); test: R-SAT inverse agonist assay
Sequence of 5-HT6A receptor (P50406 whole entry): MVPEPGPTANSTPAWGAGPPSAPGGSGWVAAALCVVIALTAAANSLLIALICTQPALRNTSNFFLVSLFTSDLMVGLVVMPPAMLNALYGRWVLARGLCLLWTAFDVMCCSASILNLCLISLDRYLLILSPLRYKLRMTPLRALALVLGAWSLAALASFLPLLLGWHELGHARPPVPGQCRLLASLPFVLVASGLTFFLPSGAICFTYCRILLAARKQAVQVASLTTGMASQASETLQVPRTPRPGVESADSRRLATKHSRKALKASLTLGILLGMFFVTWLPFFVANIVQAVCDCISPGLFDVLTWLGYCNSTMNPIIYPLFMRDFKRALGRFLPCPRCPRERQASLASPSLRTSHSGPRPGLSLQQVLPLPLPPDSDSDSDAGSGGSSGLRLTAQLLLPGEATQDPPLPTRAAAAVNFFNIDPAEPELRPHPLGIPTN

5-HT1A receptor = molecular target: T2, 5-HT1A receptor (Homo sapiens, UniProt P08908); test: R-SAT competitive antagonist assay; settings: R-SAT; nr = no significant antagonist or inverse agonist activity up to 1 μM; nr* = nr but significant agonist activity
T2 sequence (P08908 1-422): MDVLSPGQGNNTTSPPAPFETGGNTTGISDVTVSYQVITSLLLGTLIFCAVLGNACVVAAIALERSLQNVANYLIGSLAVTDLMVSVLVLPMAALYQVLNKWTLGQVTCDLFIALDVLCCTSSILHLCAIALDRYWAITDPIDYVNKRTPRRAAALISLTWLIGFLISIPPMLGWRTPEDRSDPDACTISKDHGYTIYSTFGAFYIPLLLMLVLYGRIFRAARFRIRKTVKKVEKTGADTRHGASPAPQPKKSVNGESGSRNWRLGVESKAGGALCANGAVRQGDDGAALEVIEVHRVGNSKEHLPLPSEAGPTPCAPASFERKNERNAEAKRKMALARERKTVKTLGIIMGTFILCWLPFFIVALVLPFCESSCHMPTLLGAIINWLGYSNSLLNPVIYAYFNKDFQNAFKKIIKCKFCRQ

M5 muscarinic receptor = molecular target: T3, M5 muscarinic receptor (Homo sapiens, UniProt P08912); test: R-SAT agonist assay; format: cell-based; design: expressed in transfected cells; host or cells: NIH/3T3
T3 sequence (P08912 1-532): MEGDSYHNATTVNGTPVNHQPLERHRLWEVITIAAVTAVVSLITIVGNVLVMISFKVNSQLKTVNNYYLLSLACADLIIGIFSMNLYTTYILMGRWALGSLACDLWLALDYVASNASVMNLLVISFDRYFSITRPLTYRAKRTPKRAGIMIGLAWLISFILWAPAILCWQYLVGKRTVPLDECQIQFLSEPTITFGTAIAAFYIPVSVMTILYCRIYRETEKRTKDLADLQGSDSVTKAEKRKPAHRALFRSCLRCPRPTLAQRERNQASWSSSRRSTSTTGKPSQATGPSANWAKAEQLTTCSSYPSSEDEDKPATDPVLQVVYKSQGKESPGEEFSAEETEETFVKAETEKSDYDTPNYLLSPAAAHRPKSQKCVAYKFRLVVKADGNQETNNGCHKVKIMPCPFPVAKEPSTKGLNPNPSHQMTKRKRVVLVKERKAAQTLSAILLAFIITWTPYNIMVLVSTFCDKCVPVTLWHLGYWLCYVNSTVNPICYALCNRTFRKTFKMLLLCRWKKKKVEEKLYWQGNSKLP

[4] = male, Sprague-Dawley, plasma, iv, 1 mg/kg, Plasma concentration after NDMC administration, NDMC i.v. 1 mg/kg, mean ± SD
[5] = male, Sprague-Dawley, plasma, iv, 1 mg/kg, Plasma concentration of compound measured after clozapine administration, clozapine i.v. 1 mg/kg, mean ± SD
[6] = male, Sprague-Dawley, plasma, po, 10 mg/kg, Plasma concentration after NDMC administration, NDMC p.o. 10 mg/kg, mean ± SD, two p.o. groups
[7] = male, Sprague-Dawley, plasma, po, 10 mg/kg, Plasma concentration after NDMC administration, NDMC p.o. 10 mg/kg, mean ± SD
[8] = male, Sprague-Dawley, plasma, po, 10 mg/kg, Plasma concentration of compound measured after clozapine administration, clozapine p.o. 10 mg/kg, mean ± SD
[9] = NDMC p.o. 10 mg/kg, mean ± SD, two p.o. groups, 10 mg/kg
[10] = R-SAT, relative to carbachol, No response/nr = no agonist activity up to 10 μM

Sequence of 5HT6 receptors (P50406 whole entry): as the sequence (P50406 whole entry) above

## Clc1ccc2c(c1)N=C(N1CCNCC1)c1ccccc1N2 [NDMC, 8-chloro-11-(1-piperazinyl)-5H-dibenzo [b,e][1,4] diazepine]
5HT6 receptors
  inhibition at 10 µM: ≥ 90%
5HT7 receptors
  inhibition at 10 µM: ≥ 90%
Spontaneous activity
  time of maximal reduction of spontaneous activity: 30 min
[1]; male, Sprague-Dawley, plasma, iv, 1 mg/kg
  half-life: 39.3 min
[1]; [4]
  concentration at 10 min: 540 ± 46 ng/mL
  concentration at 30 min: 276 ± 30 ng/mL
  concentration at 60 min: 126 ± 38 ng/mL
  concentration at 120 min: 33.7 ± 11.4 ng/mL
  concentration at 180 min: 11.7 ± 3.8 ng/mL
  concentration at 240 min: 5.3 ± 0.3 ng/mL
[1]; [5]
  concentration at 30 min: 2.8 ± 1.2 ng/mL
  concentration at 60 min: 4 ± 1.5 ng/mL
  concentration at 120 min: 2.3 ± 1 ng/mL
  concentration at 180 min: 0.7 ± 0.1 ng/mL
  concentration at 240 min: 0.8 ± 0.6 ng/mL
[1]; male, Sprague-Dawley, plasma, iv, 1 mg/kg, after NDMC i.v. 1 mg/kg, read-out: Average AUC (converted)
  AUC: 456 ng·h/mL
[1]; male, Sprague-Dawley, plasma, iv, 1 mg/kg, after NDMC i.v. 1 mg/kg, read-out: Cmax
  Cmax: 756 ng/mL
[1]; male, Sprague-Dawley, plasma, iv, 1 mg/kg, after NDMC i.v. 1 mg/kg, read-out: Tmax
  Tmax: 0 min
[1]; male, Sprague-Dawley, plasma, iv, 1 mg/kg, after clozapine i.v. 1 mg/kg, read-out: Average AUC of compound measured (converted)
  AUC: 8.16 ng·h/mL
[1]; male, Sprague-Dawley, plasma, iv, 1 mg/kg, after clozapine i.v. 1 mg/kg, read-out: Cmax of compound measured
  Cmax: 3.99 ng/mL
[1]; male, Sprague-Dawley, plasma, iv, 1 mg/kg, after clozapine i.v. 1 mg/kg, read-out: Tmax of compound measured (converted)
  Tmax: 60 min
[1]; male, Sprague-Dawley, plasma, iv, 1 mg/kg, read-out: Vss
  Vd: 1.47 L/kg
[1]; [6]
  concentration at 10 min: 305 ± 101 ng/mL
  concentration at 30 min: 582 ± 265 ng/mL
  concentration at 60 min: 481 ± 181 ng/mL
[1]; [7]
  concentration at 120 min: 227 ± 75 ng/mL
  concentration at 180 min: 170 ± 26 ng/mL
  concentration at 240 min: 122 ± 54 ng/mL
[1]; [8]
  concentration at 120 min: 42.5 ± 15.1 ng/mL
  concentration at 180 min: 13.4 ± 2.54 ng/mL
  concentration at 240 min: 7.1 ± 0.5 ng/mL
[1]; male, Sprague-Dawley, plasma, po, 10 mg/kg, after NDMC p.o. 10 mg/kg, read-out: Average AUC (converted)
  AUC: 1140 ng·h/mL
[1]; male, Sprague-Dawley, plasma, po, 10 mg/kg, after clozapine p.o. 10 mg/kg, read-out: Average AUC of compound measured (converted)
  AUC: 270 ng·h/mL
[1]; male, Sprague-Dawley, plasma, po, 10 mg/kg, after clozapine p.o. 10 mg/kg, read-out: Tmax of compound measured (converted)
  Tmax: 30 min
[1]; male, Sprague-Dawley, serum, oral, 10 mg/kg
  bioavailability: ~25%
[1]; male, Sprague-Dawley, serum, po, 10 mg/kg, after NDMC p.o. 10 mg/kg, read-out: Cmax
  Cmax: 582 ng/mL
[1]; male, Sprague-Dawley, serum, po, 10 mg/kg, after NDMC p.o. 10 mg/kg, read-out: Tmax
  Tmax: ≤ 30 min
[1]; male, Sprague-Dawley, serum, po, 10 mg/kg, after clozapine p.o. 10 mg/kg, read-out: Cmax of compound measured
  Cmax: 194 ng/mL
[1]; male, Sprague-Dawley, serum, po, 10 mg/kg
  bioavailability: 25%
[1]; [9]
  Plasma concentration after NDMC administration, 10 min: 277 ± 57 ng/mL
  Plasma concentration after NDMC administration, 30 min: 576 ± 161 ng/mL
  Plasma concentration after NDMC administration, 60 min: 614 ± 60 ng/mL
[1]; after NDMC i.v. 1 mg/kg
  CLs: 36.2 mL/min/kg
D3 dopamine receptor
  pKi D3, competitive antagonist: nr and nr^
[2]
  Cmax of desmethylclozapine as share of that of clozapine: approximately 20%
[3]
  share of total serum clozapine concentrations: 40-75%
M2 muscarinic receptor; M2 pEC50, R-SAT agonist
  EC50: 339 nM and 316 nM
M2 muscarinic receptor; [10]
  M2 Efficacy: 106 ± 19%
5-HT6A receptor
  EC50: 126 nM
5-HT6A receptor; R-SAT, nr = no significant antagonist or inverse agonist activity up to 1 μM
  pEC50 5HT6A, inverse agonist: 6.9 ± 0.1
5-HT1A receptor
  pKi 5-HT1A, competitive antagonist: nr and nr^1
M5 muscarinic receptor; R-SAT agonist, read-out: M5 pEC50 (converted)
  EC50: 23.4 nM and 25.1 nM
M5 muscarinic receptor; [10]
  M5 Efficacy: 48 ± 6%
M5 muscarinic receptor; functional pharmacological screen, read-out: Ki, partial agonist of M5
  Ki: 25 nM
